In patent US11484608B2, “Non-invasive assessment of hepatic mitochondrial metabolism by positional isotopomer NMR tracer analysis (PINTA)” (YALE UNIVERSITY, priority 2017, dated 2022):

Tests used:
[1] = system: primary mouse hepatocytes; experiment: In vitro glucose production, VPC and lipolysis in isolated hepatocytes; format: cell-based; conditions: for glucagon-stimulated VPC flux / glucagon-stimulated glucose production: WT hepatocytes, 100 nM glucagon, 8 hr
Description: For in vitro glucose production and lipolysis studies, primary mouse hepatocytes were isolated by the Yale Liver Center. Following removal of cell debris by Percoll density gradient centrifugation, cells were plated on 6-well collagen-I coated dishes (4.0×10^5 cells/well) in 2 ml recovery media (DMEM High Glucose containing 10% FBS, 2% penicillin-streptomycin, 100 nM dexamethasone, 1 nM insulin, and 10 mM HEPES). After incubation for 6 hr at 37° C. and 5% CO2, the attached cells were washed once in 1×PBS and then incubated overnight in 2 ml Low Glucose Culture Media (DMEM Low Glucose supplemented with 10% FBS, 2% penicillin-streptomycin and 10 mM HEPES for glucose production studies) or Serum Free Low Glucose Culture Media (DMEM Low Glucose supplemented with 0.5% fatty acid free BSA, 2% penicillin-streptomycin and 10 mM HEPES for lipolysis assays). […] After incubation for 8 hr at 37° C. and 5% CO2, cell culture media was collected for analysis of glucose, NEFA, and glycerol concentrations as described above. VPC was determined by measuring VPC/VEGP by PINTA as described above using 300 μL of the collected media, and multiplying this ratio by the measured glucose production rate. In a subset of studies, cells were incubated for 8 hr during the glucose production assay in media containing one of the following agents (all dissolved in 0.5% DMSO), or 0.5% DMSO vehicle: 20 μM ET-18-OCH3 (Santa Cruz), 100 μM U-73122 (Sigma), 30 nM thapsigargin (Sigma), 100 nM vasopressin (Sigma) 50 μM 2-APB (R&D Systems), 70 μM caffeine (Sigma), 1 mM malic enzyme inhibitor hydroxymalonate (Sigma). To inhibit PKA, hepatocytes were incubated in H-89 […] hydrate (Sigma, 25 μM) dissolved in media, or media lacking H-89 as a control. In the insulin treatment studies, hepatocytes were incubated in 1 nM insulin with 5% BSA and glucose production media for the duration of the glucose production assay. In the in vitro atglistatin study, hepatocytes were incubated in 10 μM atglistatin in 0.1% EtOH, or 0.1% EtOH vehicle. All values were normalized to total protein content determined from whole-cell lysates by a BCA protein assay (Thermo Fisher Scientific) according to the manufacturer's instructions and expressed as fold change verses vehicle-treated cells.

[2] = system: primary hepatocytes (cytosolic and mitochondrial calcium); experiment: Ca2+ imaging in isolated hepatocytes; format: cell-based, mouse
Description: Primary hepatocytes were isolated by the Yale Liver Center from wild-type and InsP3R-I KO mice and plated on glass coverslips coated with Rat Collagen Type I. Cells were loaded with the ratiometric cytosolic Ca^2+ indicator dye, Fura-2 AM (Thermo Fisher Scientific), or the mitochondrial matrix-targeted Ca^2+ indicator, Rhod-2 AM (Thermo Fisher Scientific) according to manufacturer's instructions. Ca^2+ imaging experiments were performed in 4-(2-hydroxyethyl)-1-piperazine ethanesulfonic acid (HEPES)-buffered balanced salt solution (25 mM HEPES, 121 mM NaCl, 4.7 mM KCl, 1.2 mM MgSO4, 1.2 mM KPO4, 5 mM NaHCO3, 2.0 mM CaCl2, 10 mM Glucose, pH 7.4) with or without the PKA inhibitor H-89 (25 μM) two to five hr following initial plating. Coverslips were transferred to a custom-built perfusion chamber on the stage of an inverted microscope connected to a RedShirtImaging camera (Olympus Life Science, Waltham, Mass.). […] For cytoplasmic calcium readings, changes in fluorescence (F, λ=340) were normalized by the initial fluorescence (F0, λ=380) and were expressed as F/F0. […] Individual cell responses were normalized to their respective baseline Rhod-2 AM fluorescence values, and changes were expressed as Normalized Δ Fluorescence.

[3] = system: hepatic gluconeogenesis and mitochondrial oxidation (VPC, VCS); experiment: Alanine replacement in 48 hr fasted rats; format: in vivo, rat
Description: Hepatic fluxes (whole-body glucose turnover, VPC and VCS), liver TCA cycle intermediate concentrations, and plasma metabolites and hormones were measured as described below (Flux Measurements). […] Liver and muscle glycogen concentrations were assessed using amyloglucosidase digestion. Liver TAG content was measured using the method of Bligh and Dyer (Bligh and Dyer, Can. J. Biochem. Physiol. 37, 911-917, 1959): lipids were extracted from livers using 2:1 chloroform:methanol, and the Sekisui triglyceride-SL reagent was used to measure triglyceride content spectrophotometrically. Liver and muscle DAG content and liver acetyl- and malonyl-CoA concentrations were measured by LC-MS/MS as described by Yu and Perry (Yu, et al. J. Biol. Chem. 2002, 277, 50230-50236; Perry, et al., J. Clin. Invest. 2017, 127, 657-669). […] The samples were homogenized in […] ice-cold methanol using a TissueLyser and filtered through a Nanosep filter. LC-MS/MS (AbSCIEX 6500 QTRAP with a Shimadzu ultrafast liquid chromatography system, negative ion mode) was again used to monitor the relevant ion pairs: succinate and [^13C4]succinate, 117/99 and 121/103, respectively; malate and [^13C4]malate, 133/115 and 137/119, respectively; and citrate and [13C6]citrate, 191/173 and 197/179, respectively. […] Hepatic PKCε translocation, gluconeogenic enzyme protein expression, ApoB (antibody from Meridian Life Science, Memphis, Tenn.), and PGC1α (antibody from Santa Cruz Biotechnology, Dallas, Tex.) protein expression were assessed by western blot. Expression of each of these proteins was normalized to GAPDH.

ATGL = target: T1, ATGL (Rattus norvegicus, UniProt P0C548); experiment: ATGL inhibitor atglistatin in 0, 6, 16 and 48 hr fasted rats; format: in vivo
T1 construct: from tissue; host or cells: live rat, in vivo (intraperitoneal dosing)
T1 sequence (P0C548 1-478): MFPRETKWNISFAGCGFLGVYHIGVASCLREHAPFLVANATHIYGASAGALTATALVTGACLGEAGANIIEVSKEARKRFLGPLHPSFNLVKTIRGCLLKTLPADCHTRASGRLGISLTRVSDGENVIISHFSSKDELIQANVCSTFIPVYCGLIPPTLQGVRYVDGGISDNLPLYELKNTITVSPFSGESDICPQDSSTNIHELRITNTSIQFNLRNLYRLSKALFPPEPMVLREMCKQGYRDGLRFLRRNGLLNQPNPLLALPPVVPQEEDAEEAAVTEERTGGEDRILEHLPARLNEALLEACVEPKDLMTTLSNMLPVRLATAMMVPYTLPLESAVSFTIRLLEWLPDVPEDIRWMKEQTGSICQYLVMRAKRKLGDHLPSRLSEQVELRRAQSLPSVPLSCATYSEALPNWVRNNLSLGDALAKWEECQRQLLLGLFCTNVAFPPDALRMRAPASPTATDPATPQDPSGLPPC
Description: Liver and muscle glycogen concentrations were assessed using amyloglucosidase digestion. Liver TAG content was measured using the method of Bligh and Dyer (Bligh and Dyer, Can. J. Biochem. Physiol. 37, 911-917, 1959): lipids were extracted from livers using 2:1 chloroform:methanol, and the Sekisui triglyceride-SL reagent was used to measure triglyceride content spectrophotometrically. Liver and muscle DAG content and liver acetyl- and malonyl-CoA concentrations were measured by LC-MS/MS as described by Yu and Perry (Yu, et al. J. Biol. Chem. 2002, 277, 50230-50236; Perry, et al., J. Clin. Invest. 2017, 127, 657-669). […] The samples were homogenized in […] ice-cold methanol using a TissueLyser and filtered through a Nanosep filter. LC-MS/MS (AbSCIEX 6500 QTRAP with a Shimadzu ultrafast liquid chromatography system, negative ion mode) was again used to monitor the relevant ion pairs: succinate and [^13C4]succinate, 117/99 and 121/103, respectively; malate and [^13C4]malate, 133/115 and 137/119, respectively; and citrate and [13C6]citrate, 191/173 and 197/179, respectively. […] Hepatic PKCε translocation, gluconeogenic enzyme protein expression, ApoB (antibody from Meridian Life Science, Memphis, Tenn.), and PGC1α (antibody from Santa Cruz Biotechnology, Dallas, Tex.) protein expression were assessed by western blot. Expression of each of these proteins was normalized to GAPDH.

glucocorticoid receptor = glucocorticoid receptor (Rattus norvegicus, UniProt P06536)
Sequence of glucocorticoid receptor (P06536 whole entry, the tested form may be a part): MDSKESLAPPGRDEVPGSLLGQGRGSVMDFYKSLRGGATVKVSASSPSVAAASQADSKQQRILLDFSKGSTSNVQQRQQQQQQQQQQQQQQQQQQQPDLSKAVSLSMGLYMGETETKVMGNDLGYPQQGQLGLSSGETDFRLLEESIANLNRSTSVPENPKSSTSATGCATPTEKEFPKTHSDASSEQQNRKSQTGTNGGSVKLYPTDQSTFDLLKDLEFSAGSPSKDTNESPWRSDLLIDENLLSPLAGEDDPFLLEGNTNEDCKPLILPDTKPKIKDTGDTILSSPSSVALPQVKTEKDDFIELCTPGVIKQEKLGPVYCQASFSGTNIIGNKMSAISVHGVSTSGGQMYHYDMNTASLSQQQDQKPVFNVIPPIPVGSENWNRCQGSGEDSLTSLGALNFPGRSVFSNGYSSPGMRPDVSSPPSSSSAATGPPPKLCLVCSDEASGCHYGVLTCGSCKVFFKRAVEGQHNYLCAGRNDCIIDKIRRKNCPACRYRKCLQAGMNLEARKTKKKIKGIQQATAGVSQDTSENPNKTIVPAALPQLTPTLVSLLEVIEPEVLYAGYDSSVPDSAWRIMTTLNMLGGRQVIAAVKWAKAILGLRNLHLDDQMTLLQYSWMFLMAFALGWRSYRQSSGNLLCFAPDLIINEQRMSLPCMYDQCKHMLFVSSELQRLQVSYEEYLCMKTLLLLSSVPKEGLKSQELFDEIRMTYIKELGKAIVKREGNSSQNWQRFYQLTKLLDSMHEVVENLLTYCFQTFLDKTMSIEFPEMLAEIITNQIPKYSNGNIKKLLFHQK
Description: 8, 16, and 48 hr fasted rats were injected with a small molecule inhibitor of glycogen phosphorylase, 1-(3-(3-(2-Chloro-4,5-difluorobenzoyl) ureido)-4-methoxyphenyl)-3-methylurea (Sigma #361515; 5 mg/kg IV) and a tracer infusion of [2,3,3,3-^2H4]alanine ([…]prime for 5 min and […] continuous) and [3-^3H]glucose (0.3 μCi/min prime for 5 min and 0.3 μCi/min continuous) as well as [^13C4] β-hydroxybutyrate, [1,1,2,3,3-^2H5]glycerol, and [^13C16]palmitate at the rates listed in Table 9, for 120 min. Blood samples were obtained before (time zero) and 120 min after treatment with the glycogen phosphorylase inhibitor for measurement of turnover rates and plasma hormone/substrate concentrations. Hepatic acetyl-CoA content was altered by treatment with a CPT-1 inhibitor (etomoxir, 8 mg/kg) or an ATGL inhibitor (atglistatin, […]) in 0, 6, 16, and 48 hr fasted rats. Both agents were solubilized by suspending the drug in 4% ethanol/96% normal saline, heating to 60° C., and sonicating, and were cooled to room temperature before they were injected intraperitoneally. […] In these animals plasma glucose concentrations were measured every 15 minutes and a variable infusion of 20% glucose (Pfizer Hospira, Lake Forest, Ill.) was used to maintain plasma glucose concentrations ˜3.6-3.7 mM. The physiologic role of glucocorticoids was assessed in 6 and 48 hr fasted rats by treatment with a glucocorticoid receptor antagonist, mifepristone. Following a 2 hr tracer infusion at the rates described above to assess fatty acid, glycerol, glucose, and β-hydroxybutyrate turnover, rats were injected with mifepristone (40 mg/kg) IV. The tracer infusion was continued and the tracer of each of the above substrates was again measured 2 hr after treatment with mifepristone.
All whole-body substrate turnover rates were calculated using the equation Turnover=([Tracer APE/Plasma APE]−1)*Infusion rate, where APE designates the atom percent enrichment measured by mass spectrometry as described below (Biochemical Analysis). All chemicals used for flux analysis were obtained from SIGMA. Turnover of glucose, glycerol, and β-hydroxybutyrate were determined by gas chromatography-mass spectrometry (GC-MS). Briefly, both glucose and glycerol were deprotonized with 5 volumes of methanol, derivitized with 3 volumes of 1:1 acetic anhydride:pyridine, heated to 65° C. for 20 min, and 1 volume of methanol was added, then GC-MS was used in CI mode to measure glucose enrichment and EI mode to measure glycerol enrichment, with turnover calculated using the equation above. β-Hydroxybutyrate was deprotonized with 5 volumes of methanol and derivitized with 3 volumes of n-butanol 4N HCl, after which the samples were heated to 65° C. for 60 min, evaporated under N2 gas, and re-suspended in […] of trifluoroacetic acid:methylene chloride (1:7). Fatty acid turnover was measured by determining the plasma palmitate enrichment by GC-MS. Samples were prepared for measurements of palmitate enrichment by evaporating […] plasma, dissolving in […] 1:1 chloroform:methanol and derivitizing with […] boron trifluoride/methanol, then heating to 100° C. for 5 min, adding 2 mL pentane and 1 mL water, and centrifuging at low speed for 5 min. […] Alanine turnover was determined in rats infused with [2,3,3,3-^2H4]alanine by preparing samples to measure alanine enrichment by GC/MS (CI mode) using the same protocol as was employed to measure β-hydroxybutyrate enrichment.

[4] = 48-hr fasted rats, 40 mg/kg IV, 2 hr
[5] = hepatocytes, 100 nM vasopressin

SMILES: O=S(=O)(NCCNC/C=C/c1ccc(Br)cc1)c1cccc2cnccc12 [H-89, H-89 dichloroacetate hydrate]
- glucagon-stimulated VPC flux [1]: abrogated
- glucagon-stimulated glucose production [1]: abrogated
- effect of glucagon to stimulate intrahepatic lipolysis ([1]; isolated hepatocytes): abrogated
- calcium response to glucagon ([2]; WT hepatocytes, H-89 25 μM): abrogated

SMILES: C[C@H](N)C(=O)O [alanine]
- plasma glucose, insulin, and lactate concentrations ([3]; alanine 45 mmol/(kg-min) 2 hr): increased
- endogenous glucose production ([3]; alanine infusion): increased
- increase in plasma leptin concentrations ([3]; alanine infusion): 3 fold
- liver tricarboxylic acid cycle intermediate concentrations ([3]; alanine infusion): increased
- plasma glucagon ([3]; alanine infusion): independent of any change
- pyruvate carboxylase flux (VPC) ([3]; alanine infusion): increased
- rates of hepatic mitochondrial oxidation (VCS) ([3]; alanine infusion): increased

SMILES: CN(C)C(=O)Nc1cccc(-c2ccc(N(C)C)cc2)c1 [atglistatin]
- plasma corticosterone concentration (ATGL; 16- and 48-hr fasted rats): increases
- plasma glucose concentrations (ATGL; 16- and 48-hr fasted rats): decreased
- plasma leptin (ATGL; 16- and 48-hr fasted rats): reductions
- hepatic acetyl-CoA content, hepatic gluconeogenesis, and plasma glucose and insulin concentrations (ATGL; 16- to 48-hr fasted rats): suppressed
- WAT lipolysis (ATGL; 48-hr fasted rats): suppression
- hepatic acetyl-CoA content (ATGL; 48-hr fasted rats): suppression
- plasma lactate, epinephrine, and norepinephrine concentrations and hepatic malonyl-CoA content (ATGL; fasted rats): unchanged
- glucagon-stimulated VPC flux [1]: no effect
- glucagon-stimulated glucose production [1]: no effect

SMILES: CC#C[C@]1(O)CC[C@H]2[C@@H]3CCC4=CC(=O)CCC4=C3[C@@H](c3ccc(N(C)C)cc3)C[C@@]21C [mifepristone]
- reduction in plasma leptin concentrations (glucocorticoid receptor; 48-hr fasted rats): 60%
- WAT lipolysis (glucocorticoid receptor; [4]): decreased
- ketogenesis (glucocorticoid receptor; [4]): decreased
- plasma glucose concentrations (glucocorticoid receptor; [4]): decreased
- whole-body glucose turnover (glucocorticoid receptor; [4]): decreased
- WAT lipolysis, whole body glucose turnover, or plasma glucose or insulin concentrations (glucocorticoid receptor; recently fed rats (6 hr)): no impact

SMILES: NC(=O)CC[C@@H]1NC(=O)[C@H](Cc2ccccc2)NC(=O)[C@H](Cc2ccc(O)cc2)NC(=O)[C@@H](N)CSSC[C@@H](C(=O)N2CCC[C@H]2C(=O)N[C@@H](CCCN=C(N)N)C(=O)NCC(N)=O)NC(=O)[C@H](CC(N)=O)NC1=O [vasopressin]
- VPC (effect of glucagon) [1, 5]: recapitulated
- glucose production (effect of glucagon) [1, 5]: recapitulated
- intrahepatic lipolysis (effect of glucagon) ([1]; hepatocytes, vasopressin): recapitulated
- mitochondrial and cytosolic calcium signaling ([2]; isolated WT hepatocytes (not InsP3R-I KO), 100 nM glucagon or 50 nM vasopressin): almost identical increase
